This is an account of results in article PMC7887068 (Peptides, 2021).

Read-outs that look alike come from different tables or passages of the source.

Series [1] addresses T1, recombinant human ACE2 (rhACE2) (Homo sapiens, UniProt Q9BYF1). Description: MLN-4760 inhibition of rhACE2 metabolism of angiotensin peptides. It is filed as biochemical.
The next series has as its system ACE2. The following applies: read-out: half maximum inhibitory concentration (IC50); cited from earlier work.
For series [2], the target named is T1, recombinant human ACE2 (rhACE2). Nature of the series: Zinc inhibition of rhACE2 metabolism of Ang II to Ang 1–7. Format: biochemical.
The target is the same in series [3]. The following applies: pH 7.0.
Series [4] deals with Human neutrophil collagenase (matrix metalloproteinase 8, MMP8). The note with it: 10 mM zinc; activity increases up to 100 μM zinc; cited from earlier work.
The subject of series [5] is CC[C@H](C)[C@H](NC(=O)[C@H](Cc1ccc(O)cc1)NC(=O)[C@@H](NC(=O)[C@H](CCCNC(=N)N)NC(=O)[C@@H](N)CC(=O)O)C(C)C)C(=O)N[C@@H](Cc1cnc[nH]1)C(=O)N1CCC[C@H]1C(=O)N[C@@H](Cc1ccccc1)C(=O)O. Format: biochemical, human. The note with it: other: average of the two series (Tables 2 and 3), Ang II to Ang 1–7.

In general, inhibition refers to the share of the control response that was lost under treatment. For orientation: Km means the concentration of substrate that gives half-maximal velocity.

T1 sequence (Q9BYF1 18-740 limits assumed): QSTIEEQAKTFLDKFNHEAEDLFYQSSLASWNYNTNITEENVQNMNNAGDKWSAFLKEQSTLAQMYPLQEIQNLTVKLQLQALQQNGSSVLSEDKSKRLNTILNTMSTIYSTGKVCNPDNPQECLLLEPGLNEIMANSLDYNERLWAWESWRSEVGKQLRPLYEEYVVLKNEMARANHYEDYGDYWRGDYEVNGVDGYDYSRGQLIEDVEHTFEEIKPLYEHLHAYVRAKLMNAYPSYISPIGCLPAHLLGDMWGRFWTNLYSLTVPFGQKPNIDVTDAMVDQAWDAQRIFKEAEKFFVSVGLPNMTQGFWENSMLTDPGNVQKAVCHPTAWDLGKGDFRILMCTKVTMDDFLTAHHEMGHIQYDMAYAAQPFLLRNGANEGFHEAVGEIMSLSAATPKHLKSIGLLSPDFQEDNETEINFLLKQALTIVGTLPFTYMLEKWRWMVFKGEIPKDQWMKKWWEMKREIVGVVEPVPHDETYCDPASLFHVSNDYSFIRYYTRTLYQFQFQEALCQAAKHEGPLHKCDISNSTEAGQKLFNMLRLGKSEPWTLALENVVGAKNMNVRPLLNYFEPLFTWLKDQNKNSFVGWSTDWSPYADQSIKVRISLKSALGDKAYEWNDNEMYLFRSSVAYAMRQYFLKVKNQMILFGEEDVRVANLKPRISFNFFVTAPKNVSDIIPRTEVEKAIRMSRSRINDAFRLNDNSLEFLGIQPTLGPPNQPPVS

As to `CC(C)C[C@H](N[C@@H](Cc1cncn1Cc1cc(Cl)cc(Cl)c1)C(=O)O)C(=O)O` [MLN-4760], the “inhibition of metabolism of Ang II to Ang 1–7” value in series [1] (1 μM MLN-4760) is “nearly all”. In addition, the inhibition at 1 µM in series [1] (read-out: inhibition of rhACE2 activity) was ~90%. Further, the IC50 in the series on ACE2 was 0.0004 µM.

Consider `CC(=O)[O-].CC(=O)[O-].[Zn+2]` [zinc, zinc acetate], for which, in series [2] (1 mM zinc), the “inhibition of ACE2 activity” value is listed as “completely”. The IC50 in series [2] (read-out: IC50 for inhibition of rhACE2 metabolism of Ang II to Ang 1–7, zinc 1 to 1000 μM, 100 μM Ang II, rhACE2 48.4 ng/ml (569 pM), 50 mM Hepes, 100 mM NaCl, pH 7.0, 30 min, 37°C, mean ± SEM, n=2) was 69.1 ± 1.1 µM. The “Log IC50 for inhibition of rhACE2 metabolism of Mca-APK(dnp)” value is listed as −3.77 in series [3] (HEPES buffer), −3.85 in series [3] (MES buffer) and −3.82 in series [3] (Tris buffer). The collagenase activity remaining in series [4] is recorded as ~ 20%.

Take “recombinant human ACE2 (rhACE2) (Homo sapiens)”: in series [5], the Km came out at 8.47 µM and the kcat/Km was 1.02 μM^−1,sec^−1.
